Values quoted from earlier work, collected in patent EP0176772A1, “Process for sustaining the release of vitamins C and E” (RODISMA Pharmazeutische Produkte GmbH, priority 1984, dated 1986).
Where two headings read alike, the source gives them in different places. One block for each compound: values may come before it.

Columns and labels:
[1] = not given; remark: listed apart in the source

Compound: Cc1c(C)c2c(c(C)c1O)CCC(C)(CCCC(C)CCCC(C)CCCC(C)C)O2 [D-alpha-Tocopherol]
maximale Plasmaspiegel, time of (orale Verabreichung von 600 mg an eine Versuchsperson (Hashim und Schuttringer)): ~7 Stunden
Maximum der Plasma-Tocopherol-Konzentration, time of (orale Verabreichung von (Hashim und Schuttringer)): 7 Stunden

Resorption ([1]; Einzeldosen bis 180 mg, dosisproportional (Kübler und Gehler)): ~70%
resorbiert ([1]; Einzeldosis von 1 g, 3-Kompartiment-Modell (Hornig und Moser)): 75%
resorbiert ([1]; orale Ascorbinsäurebelastung mit 12 g): 16%
Compound: O=C1O[C@H]([C@@H](O)CO)C(O)=C1O [Vitamin C, Ascorbinsäure]

Maximum (plasma vitamin E), time of (human, in vivo, po): 7 Stunden
Compound: Vitamin E
